The values below come from US8741955B2, “D-serine transporter inhibitors as pharmaceutical compositions for the treatment of central nervous system disorders” (Allergan, Inc., priority 2011, dated 2014).

Molecules are shown by their SMILES.

Experiment [1] deals with T1, human ASCT1 (Homo sapiens, UniProt P43007).
T1 construct: expressed in transfected cells; host or cells: HEK (human embryonic kidney) cells
T1 sequence (P43007 1-532): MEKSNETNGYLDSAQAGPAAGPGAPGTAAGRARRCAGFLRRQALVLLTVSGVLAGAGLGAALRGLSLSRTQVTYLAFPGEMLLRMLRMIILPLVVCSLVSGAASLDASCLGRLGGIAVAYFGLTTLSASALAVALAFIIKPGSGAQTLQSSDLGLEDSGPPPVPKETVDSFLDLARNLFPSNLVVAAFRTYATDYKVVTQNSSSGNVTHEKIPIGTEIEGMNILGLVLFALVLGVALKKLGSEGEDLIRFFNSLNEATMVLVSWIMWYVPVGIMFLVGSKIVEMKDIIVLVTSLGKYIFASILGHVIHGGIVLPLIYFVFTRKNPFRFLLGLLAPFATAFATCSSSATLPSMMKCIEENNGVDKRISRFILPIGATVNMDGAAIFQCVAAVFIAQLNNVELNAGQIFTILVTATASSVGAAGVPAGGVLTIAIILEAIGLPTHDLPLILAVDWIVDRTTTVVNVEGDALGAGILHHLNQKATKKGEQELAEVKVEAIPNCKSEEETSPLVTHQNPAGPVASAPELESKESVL
The experiment is described as follows: transport into HEK cells expressing ASCT1. Format: cell-based. As for the experimental part:
(§1) Cell-based assays: the transport of [^3H]L- or D-serine was measured in primary cultures of rat hippocampal astrocytes or in human embryonic kidney (HEK) cells expressing ASCT transporter sub-types. For the astrocyte assays, cells were plated on either 24- or 96-well plates at a density of 50,000 cells per well. For the HEK assays, cells were plated on coated 96-well plates at a density of 80,000 cells/well. Assays were conducted in duplicate at room temperature in assay buffer consisting of: NaCl: 150 mM, KCl: 2 mM; MgCl2: 1 mM; CaCl2: 1 mM; HEPES: Tris buffer: 10 mM, pH7.4. To assess the sodium-dependence of transport, NaCl was replaced in the assay buffer by equimolar choline chloride. Following aspiration of growth medium and 2 washes with assay buffer, cells were incubated with [^3H]L- or D-serine at a final concentration of 1 μM for 5 min (astrocytes) or 1 min (HEK cells), after which the incubation medium was aspirated and the cells washed twice with ice-cold assay buffer. Cells containing radiolabel were solubilized in 100 μl of 1% Triton-X100 and an aliquot counted in a beta counter. IC50 values were determined over a range of at least 6 concentrations and derived from curve-fitting algorithms available in GraphPad Prism 4.

In experiment [2] the test system is rat hippocampal astrocytes. The experiment is described as follows: [3H]L-serine transport into astrocytes. Format: cell-based. As for the experimental part:
as §1

For experiment [3], the system named is amphetamine-induced hyperlocomotion. Conditions: systemic administration; Smith et al, 2009; cited from earlier work.

With `N[C@H](CO)C(=O)O` [D-serine], the “inhibition of [3H]L-serine transport in ASCT1-expressing HEK cells” value in experiment [1] is on record as “completely inhibited”. Further, the “transport of [3H]D-serine into ASCT1-expressing HEK cells (substrate)” value in experiment [1] (with and without extracellular sodium) is “transported into ASCT1-expressing HEK cells in a sodium-dependent manner”. In addition, the “inhibition of [3H]L-serine transport in astrocytes” value in experiment [2] was “completely inhibited”. Also, the “effect on amphetamine-induced hyperlocomotion (literature)” value in experiment [3] is reported as “reduce amphetamine-induced hyperlocomotion”.
